In one assay the target is T1, Glutathionylspermidine synthase (Crithidia fasciculata) (UniProt P90518).
T1 sequence (whole entry): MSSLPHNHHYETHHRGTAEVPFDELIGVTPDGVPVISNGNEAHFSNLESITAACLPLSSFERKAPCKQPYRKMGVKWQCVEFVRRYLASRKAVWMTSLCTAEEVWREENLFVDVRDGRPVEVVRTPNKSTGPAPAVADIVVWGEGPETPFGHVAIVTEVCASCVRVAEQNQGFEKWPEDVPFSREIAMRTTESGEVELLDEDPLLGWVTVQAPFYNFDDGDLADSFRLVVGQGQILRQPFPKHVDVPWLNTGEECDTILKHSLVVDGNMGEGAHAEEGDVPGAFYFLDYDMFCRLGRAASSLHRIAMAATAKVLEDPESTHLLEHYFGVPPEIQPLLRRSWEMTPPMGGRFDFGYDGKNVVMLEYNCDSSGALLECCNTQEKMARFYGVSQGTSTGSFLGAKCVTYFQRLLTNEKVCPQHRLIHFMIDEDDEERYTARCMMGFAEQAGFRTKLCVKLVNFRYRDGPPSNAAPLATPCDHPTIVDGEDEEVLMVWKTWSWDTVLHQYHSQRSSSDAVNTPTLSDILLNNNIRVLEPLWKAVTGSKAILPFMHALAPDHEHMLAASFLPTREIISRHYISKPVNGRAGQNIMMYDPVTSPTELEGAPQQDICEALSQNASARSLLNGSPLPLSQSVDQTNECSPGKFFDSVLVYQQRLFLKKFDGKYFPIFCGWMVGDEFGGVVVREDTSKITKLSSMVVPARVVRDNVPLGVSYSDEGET
Nature of the assay: Compound was tested for inhibitory activity against glutathionylspermidine synthetase in the presence of 5 mM glutathione and spermidine.
As a reminder, the inhibition is how much of the control response was suppressed. With `CC(C)[C@H](NC(=O)[C@@H](N)CCC(=O)O)C(=O)NCC(N)CP(=O)(O)O` (some centres undefined), the inhibition turned out to be 10%.
Still for that read-out and setting: to `CC(C)C[C@H](NC(=O)[C@@H](N)CCC(=O)O)C(=O)NCCCP(=O)(O)O` belongs 24%.
The same measure, in the same setting: the value for `CC(C)[C@H](NC(=O)[C@@H](N)CCC(=O)O)C(=O)NCP(C)(=O)O` was 26%; that for `CC(C)C[C@H](NC(=O)[C@@H](N)CCC(=O)O)C(=O)NCP(=O)(Oc1ccccc1)Oc1ccccc1` was 76%.
For `CC(C)[C@H](NC(=O)[C@@H](N)CCC(=O)O)C(=O)NC(C)P(C)(=O)O` (some centres undefined), the inhibition worked out at 14%.
With `CC(C)[C@H](NC(=O)[C@@H](N)CCC(=O)O)C(=O)NCP(=O)(O)O`, the inhibition was 78%.
Still for that read-out and setting: to `CC(C)C[C@H](NC(=O)[C@@H](N)CCC(=O)O)C(=O)NCC(=O)CP(=O)(O)O` belongs 62%; to `COC(=O)CCP(=O)(O)CNC(=O)[C@@H](NC(=O)[C@@H](N)CCC(=O)O)C(C)C`, 71%.
With `CC(C)[C@H](NC(=O)[C@@H](N)CCC(=O)O)C(=O)NC[PH](=O)O`, the inhibition came to 50%.
`CC(C)[C@H](NC(=O)[C@@H](N)CCC(=O)O)C(=O)NCP(=O)(O)CCC(N)=O`: the inhibition came out at 11%.
Same read-out and setting: to `CC(C)C[C@H](NC(=O)[C@@H](N)CCC(=O)O)C(=O)NCP(=O)(O)O` belongs 86%.

The next assay concerns the target T1, Glutathionylspermidine synthase (Crithidia fasciculata). Nature of the assay: Compound was tested for inhibitory activity against glutathionylspermidine synthetase in the presence of 5 mM glutathione and spermidine; Not inhibition.
As for `CC(C)C[C@H](NC(=O)[C@@H](N)CCC(=O)O)C(=O)Nc1ccc(CP(=O)(O)O)cc1`, the inhibition result is “No inhibition”.
The same measure, in the same setting: the value for `CC(C)[C@H](NC(=O)[C@@H](N)CCC(=O)O)C(=O)NCCCP(=O)(O)O` was “No inhibition”; that for `CC(C)[C@H](NC(=O)[C@@H](N)CCC(=O)O)C(=O)NCC(O)CP(=O)(O)O` (some centres undefined) was “No inhibition”.
As for `CC(C)[C@H](NC(=O)[C@@H](N)CCC(=O)O)C(=O)NCC(=O)CP(=O)(O)O`, the inhibition result was “No inhibition”.
Same read-out and setting: to `CC(C)[C@H](NC(=O)[C@@H](N)CCC(=O)O)C(=O)NCCP(=O)(O)O` belongs “No inhibition”.

For another assay, the target named is T2, Glutathionylspermidine synthase (Crithidia fasciculata, UniProt P90518).
T2 sequence (P90518 whole entry): T1 sequence (whole entry)
Nature of the assay: Compound was tested for linear non-competitive inhibitory activity against glutathionylspermidine synthetase.
A word on the Ki: it is the dissociation constant of the complex between target and ligand, obtained from inhibition or displacement. A low value points to a stronger hold on the target. The compound `CC(C)[C@H](NC(=O)[C@@H](N)CCC(=O)O)C(=O)NCP(=O)(O)O` showed a Ki of 290 µM.
Turning to `CC(C)C[C@H](NC(=O)[C@@H](N)CCC(=O)O)C(=O)NCP(=O)(O)O`, the Ki came out at 60 µM.

A further assay concerns the target T1, Glutathionylspermidine synthase (Crithidia fasciculata). The assay can be described thus: Compound was tested for inhibitory activity against glutathionyl spermidine synthetase in the presence of 5 mM glutathione and spermidine.
As to `COC(=O)CCP(=O)(O)C(C)NC(=O)[C@@H](NC(=O)[C@@H](N)CCC(=O)O)C(C)C` (some centres undefined), the inhibition came out at 15%.

The record behind these values is ChEMBL document CHEMBL1128960, “Phosphonic acid and phosphinic acid tripeptides as inhibitors of glutathionylspermidine synthetase” (Bioorg Med Chem Lett, 1996).
